This is an account of results in PubChem BioAssay AID298 (DTP/NCI, 2004).

For this assay, the system named is MX-1 breast xenograft, intrarenal, nude mice, tumor weight. Description: NCI In Vivo Anticancer Drug Screen. Data for tumor model Human Mammary Carcinoma MX-1 Xenograft (intrarenal inoculation) in NU/NU BALB/C (nude) mice. The note with it: endpoint: mean tumor weight change, higher = larger tumour. In a few lines:
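Compounds were given to mice carrying transplanted tumors, and tumor size or survival was measured. Each value is the treated-group measurement (T) divided by the vehicle-treated control-group measurement (C).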

Setting [1] is: dose: 150.0 mg/kg/injection, schedule: Q04DX003 (ip), vehicle: Klucel (hydroxypropylcellulose) (HPC).
The mark [2] stands for this setting: dose: 300.0 mg/kg/injection, schedule: Q04DX003 (ip), vehicle: Klucel (hydroxypropylcellulose) (HPC).
[3] abbreviates: dose: 200.0 mg/kg/injection, schedule: Q04DX003 (sc), vehicle: Klucel (hydroxypropylcellulose) (HPC).

Values joined by “and” are separate entries in the source; they are usually repeats but may differ in a detail not shown here. Equal entries are not always repeated. Inconclusive results are not listed.

As for `C[C@]12CCC(=O)C(O)=C1CC[C@@H]1[C@@H]2CC[C@]2(C)C(=O)CC[C@@H]12`, the T/C is 101 % of control under setting [1]; 96 % of control under setting [2]; 122 % of control (dose: 600.0 mg/kg/injection, schedule: Q04DX003 (ip), vehicle: Klucel (hydroxypropylcellulose) (HPC)); 113 % of control (dose: 1200.0 mg/kg/injection, schedule: Q04DX003 (ip), vehicle: Klucel (hydroxypropylcellulose) (HPC)).

In the case of `OCCN1CCN(CC/C=C2/c3ccccc3Sc3ccc(C(F)(F)F)cc32)CC1`, the T/C (dose: 30.0 mg/kg/injection, schedule: Q04DX003 (sc), vehicle: saline) is 65 % of control; the T/C (dose: 60.0 mg/kg/injection, schedule: Q04DX003 (sc), vehicle: saline) is 43 % of control and 44 % of control; the T/C (dose: 120.0 mg/kg/injection, schedule: Q04DX003 (sc), vehicle: saline) was 11 % of control and 33 % of control.

Turning to `CC(=O)OCC(=O)[C@@]12OC(C)(C)O[C@@H]1C[C@H]1[C@@H]3CC(C=O)=C4C=C(OCCCl)CC[C@]4(C)[C@@]3(F)[C@@H](O)C[C@@]12C`, the T/C was 93 % of control (dose: 25.0 mg/kg/injection, schedule: Q04DX003 (sc), vehicle: Klucel (hydroxypropylcellulose) (HPC)); 81 % of control (dose: 50.0 mg/kg/injection, schedule: Q04DX003 (sc), vehicle: Klucel (hydroxypropylcellulose) (HPC)); 71 % of control (dose: 100.0 mg/kg/injection, schedule: Q04DX003 (sc), vehicle: Klucel (hydroxypropylcellulose) (HPC)); 78 % of control under setting [3].

On to `NC(=S)N/N=C/c1ccc(O)cn1`, for which the T/C runs as follows: (dose: 100.0 mg/kg/injection, schedule: Q04DX003 (sc), vehicle: saline with Tween-80) 88 % of control; (dose: 200.0 mg/kg/injection, schedule: Q04DX003 (sc), vehicle: saline with Tween-80) 101 % of control; (dose: 400.0 mg/kg/injection, schedule: Q04DX003 (sc), vehicle: saline with Tween-80) 92 % of control.

As to `C=CCOc1cc2c(cc1C(C)c1ccc(OC)cc1)OCO2` (stereo not given), the T/C is, setting by setting: (dose: 75.0 mg/kg/injection, schedule: Q04DX003 (ip), vehicle: Klucel (hydroxypropylcellulose) (HPC)) 73 % of control; under setting [1], 91 % of control; under setting [2], 94 % of control.

Regarding `Nc1nc(Br)nc2c1ncn2C1CC(O)C(CO)O1` (stereo not given), the T/C by setting is: (dose: 7.5 mg/kg/injection, schedule: Q03DX003 (ip), vehicle: saline) 109 % of control; (dose: 15.0 mg/kg/injection, schedule: Q03DX003 (ip), vehicle: saline) 88 % of control; (dose: 30.0 mg/kg/injection, schedule: Q03DX003 (ip), vehicle: saline) 43 % of control; (dose: 60.0 mg/kg/injection, schedule: Q03DX003 (ip), vehicle: saline) 59 % of control; (dose: 120.0 mg/kg/injection, schedule: Q03DX003 (ip), vehicle: saline) 65 % of control.

As to `CC1(C)N=C(N)N=C(N)N1c1ccc(F)c(C(F)(F)F)c1`, the T/C runs as follows: (dose: 6.25 mg/kg/injection, schedule: Q01DX010 (sc), vehicle: saline) 97 % of control; (dose: 12.5 mg/kg/injection, schedule: Q01DX010 (sc), vehicle: saline) 85 % of control; (dose: 25.0 mg/kg/injection, schedule: Q01DX010 (sc), vehicle: saline) 64 % of control.

With `C/C=C\C1OC1(C)c1cc(=O)c2c(C)cc3c(c2o1)C(=O)c1c(O)c(C2CC(C)(N(C)C)C(OC(C)=O)C(C)O2)cc(C2CC(N(C)C)C(O)C(C)O2)c1C3=O` (stereo not given), the T/C is, setting by setting: (dose: 0.75 mg/kg/injection, schedule: Q04DX003 (ip), vehicle: saline + alcohol) 89 % of control; (dose: 1.5 mg/kg/injection, schedule: Q04DX003 (ip), vehicle: saline + alcohol) 34 % of control and 50 % of control; (dose: 3.0 mg/kg/injection, schedule: Q04DX003 (ip), vehicle: saline + alcohol) 29 % of control and 47 % of control; (dose: 6.0 mg/kg/injection, schedule: Q04DX003 (ip), vehicle: saline + alcohol) 11 % of control and 32 % of control; (dose: 12.0 mg/kg/injection, schedule: Q04DX003 (ip), vehicle: saline + alcohol) 39 % of control.

On to `COC(=O)CC(N)C(=O)O` (stereo not given), for which the T/C is, setting by setting: (dose: 300.0 mg/kg/injection, schedule: Q04DX003 (sc), vehicle: saline with Tween-80) 78 % of control; (dose: 600.0 mg/kg/injection, schedule: Q04DX003 (sc), vehicle: saline with Tween-80) 121 % of control; (dose: 1200.0 mg/kg/injection, schedule: Q04DX003 (sc), vehicle: saline with Tween-80) 99 % of control; (dose: 2400.0 mg/kg/injection, schedule: Q04DX003 (sc), vehicle: saline with Tween-80) 101 % of control.

`[Na+]`: the T/C was 66 % of control (dose: 150.0 mg/kg/injection, schedule: Q04DX003 (ip), vehicle: water); 84 % of control (dose: 600.0 mg/kg/injection, schedule: Q04DX003 (ip), vehicle: water); 97 % of control (dose: 1200.0 mg/kg/injection, schedule: Q04DX003 (ip), vehicle: water).

For the molecule `Cc1ccccc1N=C(c1ccccc1)C1C(=O)c2ccccc2C1=O`, the T/C was 117 % of control (dose: 150.0 mg/kg/injection, schedule: Q04DX003 (ip), vehicle: DMSO); 102 % of control (dose: 300.0 mg/kg/injection, schedule: Q04DX003 (ip), vehicle: DMSO); 103 % of control (dose: 600.0 mg/kg/injection, schedule: Q04DX003 (ip), vehicle: DMSO); 65 % of control (dose: 1200.0 mg/kg/injection, schedule: Q04DX003 (ip), vehicle: DMSO).

As to `CC1=CC(=Nc2ccc(N(CCCl)CCCl)cc2)C=C(C)C1=O`, the T/C (dose: 300.0 mg/kg/injection, schedule: Q04DX003 (sc), vehicle: Klucel (hydroxypropylcellulose) (HPC)) is -11 % of control; the T/C (dose: 600.0 mg/kg/injection, schedule: Q04DX003 (sc), vehicle: Klucel (hydroxypropylcellulose) (HPC)) was -12 % of control; the T/C (dose: 1200.0 mg/kg/injection, schedule: Q04DX003 (sc), vehicle: Klucel (hydroxypropylcellulose) (HPC)) is 1 % of control; the T/C (dose: 2400.0 mg/kg/injection, schedule: Q04DX003 (sc), vehicle: Klucel (hydroxypropylcellulose) (HPC)) was -20 % of control.

Regarding `CN(C)CCNc1ccc(CO)c2sc3ccc(O)cc3c(=O)c12`, the T/C by setting is: (dose: 50.0 mg/kg/injection, schedule: Q04DX003 (ip), vehicle: saline with Tween-80) 30 % of control; (dose: 100.0 mg/kg/injection, schedule: Q04DX003 (ip), vehicle: saline with Tween-80) 25 % of control and 26 % of control and 28 % of control; (dose: 200.0 mg/kg/injection, schedule: Q04DX003 (ip), vehicle: saline with Tween-80) 6 % of control and 17 % of control and 28 % of control; (dose: 400.0 mg/kg/injection, schedule: Q04DX003 (ip), vehicle: saline with Tween-80) 5 % of control and 10 % of control and 18 % of control.

For `COC1/C=C/C=C(/C)Cc2cc(O)c(Cl)c(c2)N(C)C(=O)CC(OC(=O)C(C)C)C2(C)OC2C(C)C2CC1(O)NC(=O)O2` (stereo not given), the T/C runs as follows: (dose: 1.0 mg/kg/injection, schedule: Q04DX003 (sc), vehicle: saline + alcohol) 70 % of control; (dose: 2.0 mg/kg/injection, schedule: Q04DX003 (sc), vehicle: saline + alcohol) 33 % of control; (dose: 4.0 mg/kg/injection, schedule: Q04DX003 (sc), vehicle: saline + alcohol) -47 % of control; (dose: 8.0 mg/kg/injection, schedule: Q04DX003 (sc), vehicle: saline + alcohol) -100 % of control.

In the case of `COC1C(CO)OC(n2c3c(Cl)cccc3c3c4c(c5c6cccc(Cl)c6[nH]c5c32)C(=O)NC4=O)C(O)C1O` (stereo not given), the T/C (dose: 100.0 mg/kg/injection, schedule: Q04DX003 (ip), vehicle: distilled water + Tween-80) is 69 % of control; the T/C (dose: 200.0 mg/kg/injection, schedule: Q04DX003 (ip), vehicle: distilled water + Tween-80) was 43 % of control; the T/C (dose: 400.0 mg/kg/injection, schedule: Q04DX003 (ip), vehicle: distilled water + Tween-80) is 21 % of control; the T/C (dose: 800.0 mg/kg/injection, schedule: Q04DX003 (ip), vehicle: distilled water + Tween-80) is 30 % of control.

With `CCCCCCSc1nc(COC(=O)NC)c(COC(=O)NC)n1C`, the T/C (dose: 33.7 mg/kg/injection, schedule: Q04DX003 (ip), vehicle: saline) is 100 % of control and the T/C (dose: 135.0 mg/kg/injection, schedule: Q04DX003 (ip), vehicle: saline) is 23 % of control.

Turning to `NCCCN=c1ccc2c3c1c(O)c1c(O)ccc(=O)c1c3[nH]n2CCNCCO`, the T/C is, setting by setting: (dose: 9.35 mg/kg/injection, schedule: Q04DX003 (ip), vehicle: water) 19 % of control; (dose: 9.38 mg/kg/injection, schedule: Q04DX003 (ip), vehicle: water) 11 % of control; (dose: 18.75 mg/kg/injection, schedule: Q04DX003 (ip), vehicle: water) -33 % of control and -19 % of control and -16 % of control; (dose: 37.5 mg/kg/injection, schedule: Q04DX003 (ip), vehicle: water) -87 % of control and -83 % of control and -100 % of control.

`O=C1NC(=O)NC(C(=O)O)N1`: the T/C was 96 % of control under setting [3] and 108 % of control (dose: 400.0 mg/kg/injection, schedule: Q04DX003 (sc), vehicle: Klucel (hydroxypropylcellulose) (HPC)).
